Test results published in patent US11046647B2, “Activators of the unfolded protein response” (The Board of Trustees of the University of Illinois, priority 2018, dated 2021).
Several values for one entry are separate records, joined by “and”; a condition that tells them apart may be missing. Equal entries are not always repeated.

Key:
[1] = test system: TYS-Luc (T47DERαY537S-Luc human breast cancer cells) tumors; experiment: Orthotopic TYS-Luc mouse xenograft, bioluminescent imaging (BLI); type: in vivo
Experimental: In a treatment and vehicle-controlled mouse tumor study, human breast cancer cells were engineered to contain both the lethal ERαY537S mutation found in metastatic breast cancer, and the gene for firefly luciferase—when the appropriate chemical is added, the firefly luciferase breaks down the chemical and light is produced. Using a sensitive detector called an imaging system, this allows us to image the tumors inside live mice. This is called bioluminescent imaging, or BLI. Large tumors were allowed to form. Then (−)-105 was injected daily under the skin for three weeks. Using the imaging system, the effect of (−)-105 on the tumors was monitored. At the same time the effect of the vehicle in which (−)-105 was dissolved on tumors was also monitored.
A study was performed to determine what happens after stopping treatment with (−)-105 (Table 2). The study was designed to show whether the micro-tumors would remain dormant, or whether they would regrow. At the end of the three-week treatment, there is residual material that gives off a tiny amount of light which are termed “micro-tumors”. Based on sensitivity of the imaging system, it is believed these micro-tumors contain anywhere from 0˜1,000 cancer cells; the micro-tumors will not be visible to the naked eye. Seeing them requires the powerful imaging system, or a microscope. To test whether these cells are either dead, or no longer dividing and are dormant, the cells two and 4 weeks after they stopped receiving any treatment were imaged. This study tested whether growing cancer cells have been eradicated; this study continues.
In a 3-week study, large breast tumors were present at start of treatment and regressed as shown in the image of FIG. 17. The study was performed using Orthotopic TYS-Luc (injected cells: T47DERαY537-Luc human breast cancer cells), e.g., the most lethal ERα mutation in human in metastatic breast cancer. Tumors were grown in NSG mice. Further details are provided in the Examples.
Experimental Details of the Xenografts: TYS-Luc cells (5,000,000 cells in Matrigel) were injected into the upper mammary fat pad of ovariectomized female NSG (SCID) mice (Jackson labs). After 10 weeks, on day 0, large tumors (size range: 100-600 mm^3) were present. Mice were treated with the vehicle used to dissolve (−)-105, or (−)-105 at 40 mg/kd daily by subcutaneous injection. For bioluminescent imaging (BLI) of the tumors, the mice were anesthetized with isoflurane and Lucerfin, the luciferase substrate, was injected into the mice. Flux, the total member of light photons hitting the detector in one second was measured using an IVIS ([…]). Shown is the flux (in millions of units per second) for the entire area containing each tumor, or an equivalent area when the tumor is tiny or undetectable and the percent change in tumor size at each time a measurement was taken (day 0, day 3, week 1, week 2, week 3). Then treatment was stopped, and another measurement was taken two weeks letter. Note that tumors were also measured with calipers. […] After three days all the (−)-105 tumors has declined to undetectable using calipers.

[2] = test system: TYD-Luc cells (T47DERαD538G-luciferase human breast cancer cells) tumors; experiment: Orthotopic TDG-Luc mouse xenograft, bioluminescent imaging; type: in vivo
Excerpt: FIG. 41. SERK-F6 eradicates mutant ERα primary and metastatic breast cancer. a-c, TYS-luc. orthotopic tumors were established in NSG ovariectomized mice (no E2 pellet, 60 days to establish) and dosed daily as indicated (n=5-6). b, representative examples of bioluminescence images of SERK-F6 treated mice (7 days). d,e, TDG-luc. orthotopic tumors were established in NSG ovariectomized mice (no E2 pellet, 120 days to establish) and dosed daily as indicated (n=4-5). e, Bioluminescence image of SERK-F6 treated mouse with TDG-luc. tumor burden after 7 days. f, MYS-luc. orthotopic tumors were established in NSG ovariectomized mice (no E2 pellet, 45 days to establish) and dosed daily as indicated (n=4-5). g, MDG-luc. orthotopic tumors were established in NSG ovariectomized mice (no E2 pellet, 45 days to establish) and dosed daily as indicated (n=4-5). h, Metastatic model with MDG-luc. cells injected into the tail-vein of NSG ovariectomized mice (no E2 pellet, 1.5 months to establish) and mice were dosed daily as indicated (n=4-5).
FIG. 4A illustrates how IC50's for cell death were determined. 4B tests the ability BHPI, (−)-105, and 01-15 to kill. […] Large orthotopic breast tumors of TYD-Luc cells (T47DERαD538G-luciferase human breast cancer cells) were allowed to form for 4 months in immune suppressed NSG mice. […]

[3] = test system: MYS and MDG cells (MCF-7 with Y537S or D538G ERα) tumors; experiment: MYS-luc / MDG-luc orthotopic tumors; type: in vivo, mouse; settings: daily dosing
Excerpt: FIG. 41. […]
FIG. 43. SERK-F6-mediated eradication of MYS/MDG tumors is dependent on quantitative cell killing. a-b, MYS-luc. orthotopic tumors were established in NSG ovariectomized mice (no E2 pellet, ˜45 days to establish) and dosed daily as indicated (n=5-6), b, Treatment of MYS-luc, tumors were stopped after 21 daily doses of SERK-F6 and mice tumor burden was tracked via bioluminescence. […]

[4] = 2 weeks after treatment stopped, per mouse
[5] = 4 weeks after treatment stopped, per mouse

## O=C1Nc2c(C(F)(F)F)cccc2C1(c1ccc(O)cc1)c1ccc(OC(F)(F)F)cc1 (single isomer, unassigned; (-)) [(−)-105, 3-(4-hydroxyphenyl)-3-(4-(trifluoromethoxy)phenyl)-7-(trifluoromethyl)indolin-2-one]
[1]; 10 mg/kg oral
  tumor regrowth after sub-therapeutic dose: tumors did regrow
[1]; [4]
  Week 2 No Drug % Change in Tumor Flux: −99.95% and −99.84% and −100% (2×) and −99.991%
  Week 2 No Drug Tumor Flux: 0.13 millions of photons/sec and 0.11 millions of photons/sec and 0 millions of photons/sec (2×) and 0.17 millions of photons/sec
[1]; 3-week treatment
  health / toxicity of treated mice: No toxicity
[1]; 4 weeks after stopping treatment
  micro-tumor regrowth after stopping treatment: NO “MICRO-TUMOR” REGROWTH
[1]; [5]
  Week 4 No Drug % Change in Tumor Flux: −99.98% and −99.88% and −100% and −99.997% and −99.998%
  Week 4 No Drug Tumor Flux: 0.038 millions of photons/sec (2×) and 0.084 millions of photons/sec and 0 millions of photons/sec and 0.048 millions of photons/sec
[1]; Day 3, per mouse, 40 mg/kg daily, 40 mg/kg
  Day 3 Flux: 0.22 millions of photons/s and 0.043 millions of photons/s and 0.40 millions of photons/s and 0.29 millions of photons/s and 0.17 millions of photons/s
[1]; Day 3 vs Day 0, per mouse
  Day 3 % Change in Tumor Flux: −99.99% (2×) and −99.98% (2×) and −99.45%
[1]; Day 7, per mouse
  Day 7 Flux: 0.082 millions of photons/s and 0.041 millions of photons/s and 0.17 millions of photons/s and 0.059 millions of photons/s and 0.18 millions of photons/s
[1]; Day 7 vs Day 0, per mouse
  Day 7 % Change in Tumor Flux: −99.996% (2×) and −99.99% (2×) and −99.77%
[1]; Day 14, per mouse
  Day 14 Flux: 0.246 millions of photons/s and 0.039 millions of photons/s and 0.245 millions of photons/s and 0 millions of photons/s and 0.071 millions of photons/s
[1]; Day 14 vs Day 0, per mouse
  Day 14 % Change in Tumor Flux: −99.99% (2×) and −99.66% and −100% and −99.996%
[1]; Day 21, per mouse
  Day 21 Flux: 0.051 millions of photons/s and 0.16 millions of photons/s and 0.14 millions of photons/s and 0 millions of photons/s and 0.046 millions of photons/s
[1]; Day 21 vs Day 0, per mouse
  Day 21 % Change in Tumor Flux: −99.998% and −99.94% and −99.81% and −100% and −99.997%
[1]; after 21 daily doses 40 mg/kg i.p.
  tumor regrowth upon treatment cessation: tumors did not regrow
[1]; after 3 days of treatment
  tumor regression by BLI, 4 of the 5 tumors: more than 99.9%
  tumor regression by BLI, all five tumors: more than 99%
  tumor size using calipers, all 5 mice: undetectable
[1]; after three weeks
  tumor regression by BLI, 3 of the remaining 4 mice: more than 99.9%
[1]; dose-dependent, i.p. and oral administration
  effect on Y537S tumors (TYS cell line): eradicates Y537S tumors
[1]; i.p. and oral administration
  tolerability: tolerated
[1]; start of no-drug recovery after 3 weeks treatment, per mouse
  Start Recovery Flux: 0.16 millions of photons/sec and 0.14 millions of photons/sec and 0 millions of photons/sec and 0.046 millions of photons/sec and 0.051 millions of photons/sec
[1]; start of no-drug recovery, per mouse
  Start No Drug: % change in Tumor Flux: −99.94% and −99.81% and −100% and −99.997%
[1]; two weeks after treatment was stopped
  microtumor regrowth after stopping treatment: had not started growing again
[1]; within seven days
  tumor size using calipers, all 5 tumors: undetectable size
[2]; 40 mg/kg oral gavage, 3 days
  efficacy on oral administration: effective when administered orally
[2]; daily dosing
  effect on D538G mutant tumors (TDG cell line): destruction of D538G mutant tumors
[3]
  tumor response: Dramatic tumor regressions were observed
